Patent publication US10538516B2, “Oxadiazole derivative and pharmaceutical containing same” (National Center for Geriatrics and Gerontology, priority 2015, dated 2020)

These compounds were tested against T1, GAβ-dependent amyloid fibril formation (Human Aβ1-40 + GM1-containing liposome) (Homo sapiens, UniProt P05067) (assay: Thioflavin T (ThT) assay of GAβ-dependent amyloid fibril formation (Aβ1-40 with GM1-containing liposome)). Conditions: @5 μM; read-out: ThT Inhibitory activity (% inhibition).
T1 construct: Human Aβ1-40 (cat. #4307-v, prepared by Peptide Institute); purchased Peptide Institute 4307-v
Assay type: biochemical
Summary of the method: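 Human Aβ1-40 (75 μM stock) pre-incubated 10 min at room temperature with compound (75 or 15 μM solution), then GM1-containing cholesterol/sphingomyelin liposome added and incubated 37° C, 18 hours. Fibrils quantified by ThT fluorescence (ex 430/em 490 nm, pH 8.5 glycine buffer); inhibition as ratio to compound-free control.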

T1 sequence (P05067 672-711 limits assumed): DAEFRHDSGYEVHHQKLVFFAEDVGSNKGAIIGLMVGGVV

inhibition at 5 µM [%] | SMILES
51 | O=C(N[C@@H](CO)c1nc(-c2ccc(OC(F)(F)F)cc2)no1)c1ccccc1 [Compound 92, (S)-N-(2-hydroxy-1-[3-{4-(tri-fluoromethoxy)phenyl}-1,2,4-oxadiazol-5-yl]ethyl)benzamide]
43 | O=C1CC(c2nc(-c3ccc4c(c3)OC(F)(F)O4)no2)CN1c1ccc(Cl)cc1 (stereo not drawn) [Compound 32, 1-(4-chlorophenyl)-4-{3-(2,2-difluoro-benzo[d][1,3]dioxol-5-yl)-1,2,4-oxadiazol-5-yl}pyrrolidin-2-one]

Same assay, conditions: @25 μM; read-out: ThT Inhibitory activity (% inhibition)

inhibition at 25 µM [%] | SMILES
81 | O=C(N[C@@H](CO)c1nc(-c2ccc(OC(F)(F)F)cc2)no1)c1ccccc1 [Compound 92, (S)-N-(2-hydroxy-1-[3-{4-(tri-fluoromethoxy)phenyl}-1,2,4-oxadiazol-5-yl]ethyl)benzamide]
86 | O=C1CC(c2nc(-c3ccc4c(c3)OC(F)(F)O4)no2)CN1c1ccc(Cl)cc1 (stereo not drawn) [Compound 32, 1-(4-chlorophenyl)-4-{3-(2,2-difluoro-benzo[d][1,3]dioxol-5-yl)-1,2,4-oxadiazol-5-yl}pyrrolidin-2-one]
76 | CC(=O)c1ccc(-c2noc([C@H](CO)NC(=O)c3ccccc3)n2)cc1 [Compound 153, N-[(1S)-1-[3-(4-acetylphenyl)-1,2,4-oxadiazol-5-yl]-2-hydroxyethyl] benzamide]
67 | O=C(N[C@@H](CO)c1nc(-c2ccc(C3(F)COC3)cc2)no1)c1ccc(F)cc1 [Compound 190, 4-fluoro-N-[(1S)-1-{3-[4-(3-fluorooxetan-3-yl)phenyl]-1,2,4-oxadiazol-5-yl}-2-hydroxyethyl] benzamide]

Same assay, conditions: inhibition rate against amyloid fibril formation, final concentration of the compound 25 μM

SMILES | Inhibitory activity ABC evaluation
O=C(N[C@@H](CO)c1nc(-c2ccc(C(F)(F)F)cn2)no1)c1ccc(Cl)cc1 [Compound 205, 4-chloro-N-[(1S)-2-hydroxy-1-{3-[5-(trifluoromethyl)pyridin-2-yl]-1,2,4-oxadiazol-5-yl}ethyl]benzamide] | B (40% or more and less than 80% were evaluated as B)

Same assay, conditions: inhibition rate against amyloid fibril formation, final concentration of the compound 25 μM; read-out: Inhibitory activity ABC evaluation

SMILES | inhibition at 25 µM [%]
O=C(N[C@@H](CO)c1nc(-c2ccc(OCCN3CCOCC3)cc2)no1)c1ccccc1 [Compound 158, N-[(1S)-2-hydroxy-1-(3-{4-[2-(morpholin-4-yl)ethoxy]phenyl}-1,2,4-oxadiazol-5-yl)ethyl] benzamide] | 40 to 80
O=C(N[C@@H](CO)c1nc(-c2nc3ccc(O)cc3s2)no1)c1ccc(F)cc1 [Compound 259, 4-fluoro-N-[(1S)-2-hydroxy-1-[3-(6-hydroxy-1,3-benzothiazol-2-yl)-1,2,4-oxadiazol-5-yl]ethyl] benzamide] | 40 to 80
O=C1CC(CO)(c2nc(-c3ccc4c(c3)OC(F)(F)O4)no2)CN1c1ccc(Cl)cc1 (stereo not drawn) [Compound 73, 1-(4-chlorophenyl)-4-[3-(2,2-difluorobenzo[d][1,3]dioxol-5-yl)-1,2,4-oxadiazol-5-yl]-4-(hydroxymethyl)pyrrolidin-2-one] | > 80
O=C(N[C@@H](CO)c1nc(-c2ccc(OC(F)(F)F)cc2)no1)c1ccccc1 [Compound 92, (S)-N-(2-hydroxy-1-[3-{4-(tri-fluoromethoxy)phenyl}-1,2,4-oxadiazol-5-yl]ethyl)benzamide] | > 80
O=C(N[C@@H](CO)c1nc(-c2cnc3ccccc3c2)no1)c1ccc(F)cc1 [Compound 173, 4-fluoro-N-[(1S)-2-hydroxy-1-[3-(quinolin-3-yl)-1,2,4-oxadiazol-5-yl]ethyl] benzamide] | < 40
O=C(N[C@@H](CO)c1nc(-c2ccc(O)cc2F)no1)c1ccccc1 [Compound 142, N-[(1S)-1-[3-(2-fluoro-4-hydroxyphenyl)-1,2,4-oxadiazol-5-yl]-2-hydroxyethyl]benzamide] | 40 to 80
O=C1CC(c2nc(-c3ccc(Cl)cc3)no2)CN1c1ccc(Cl)cc1 (stereo not drawn) [Compound 59, 1-(4-chlorophenyl)-4-{3-(4-chlorophenyl)-1,2,4-oxadiazol-5-yl}pyrrolidin-2-one] | < 40
O=C(c1ccc(Cl)cc1)N1CC(c2nc(-c3ccc(OC(F)(F)F)cc3)no2)C1 [Compound 68, (4-chloro-phenyl)(3-[3-{4-(trifluoro-methoxy)phenyl}-1,2,4-oxadiazol-5-yl]azetidin-1-yl)methanone] | 40 to 80
O=C(NC(CO)(CO)c1nc(-c2ccc(OC(F)(F)F)cc2)no1)c1ccc(Cl)cc1 [Compound 102, 4-chloro-N-(1,3-dihydroxy-2-{3-[4-(trifluoromethoxy)phenyl]-1,2,4-oxadiazol-5-yl}propan-2-yl)benzamide] | 40 to 80
O=C(N[C@H](CO)c1nc(-c2ccc(C(F)(F)F)cc2)no1)c1ccccc1 [Compound 213, N-[(1R)-2-hydroxy-1-{3-[4-(trifluoromethyl)phenyl]-1,2,4-oxadiazol-5-yl}ethyl]benzamide] | < 40
O=C1CC(c2nc(-c3ccc(OC(F)F)cc3)no2)CN1c1ccc(Cl)cc1 (stereo not drawn) [Compound 52, 1-(4-chlorophenyl)-4-[3-{4-(difluoro-methoxy)phenyl}-1,2,4-oxadiazol-5-yl]pyrrolidin-2-one] | 40 to 80
O=C(N[C@@H](CO)c1nc(-c2cc(C(F)(F)F)cc(C(F)(F)F)c2)no1)c1ccc(F)cc1 [Compound 215, N-[(1S)-1-{3-[3,5-bis(trifluoromethyl)phenyl]-1,2,4-oxadiazol-5-yl}-2-hydroxyethyl]-4-fluorobenzamide] | 40 to 80
COc1ccc(-c2noc(C(C)(C)N(C)C(=O)c3ccc(Cl)cc3)n2)cc1 [Compound 22, 4-chloro-N-[2-{3-(4-methoxyphenyl)-1,2,4-oxadiazol-5-yl}propan-2-yl]-N-methyl-benzamide] | < 40

Continued, values first:

inhibition at 25 µM [%] | SMILES
40 to 80 | O=C(N[C@@H](CO)c1nc(-c2ccc(C(F)F)cc2)no1)c1ccc(F)cc1 [Compound 166, N-[(1S)-1-{3-[4-(difluoromethyl)phenyl]-1,2,4-oxadiazol-5-yl}-2-hydroxyethyl]-4-fluorobenzamide]
40 to 80 | O=C(N[C@H](CO)c1nc(-c2ccc(C(F)(F)F)cc2)no1)c1ccc(F)cc1 [Compound 212, 4-fluoro-N-[(1R)-2-hydroxy-1-{3-[4-(trifluoromethyl)phenyl]-1,2,4-oxadiazol-5-yl}ethyl]benzamide]
40 to 80 | O=C1CC(c2nc(-c3ccc(OC(F)(F)F)cc3)no2)CN1c1ccc(Cl)cc1F (stereo not drawn) [Compound 28, 1-(4-chloro-2-fluorophenyl)-4-[3-{4-(trifluoromethoxy)phenyl}-1,2,4-oxadiazol-5-yl]pyrrolidin-2-one]
< 40 | O=C(NC1(c2nc(-c3ccc(OC(F)(F)F)cc3)no2)CCCC1)c1ccc(F)cc1 [Compound 30, 4-fluoro-N-(1-[3-{4-(trifluoromethoxy)phenyl}-1,2,4-oxadiazol-5-yl]cyclopentyl) benzamide]
40 to 80 | CC(C)(NC(=O)c1ccc(Cl)cc1)c1nc(-c2ccc(OC(F)(F)F)cc2)no1 [Compound 20, 4-chloro-N-(2-[3-{4-(trifluoromethoxy)phenyl}-1,2,4-oxadiazol-5-yl]propan-2-yl)benzamide]
40 to 80 | O=C(Cc1c[nH]c2ccccc12)NC(CO)c1nc(-c2ccc(C(F)(F)F)cc2)no1 (stereo not drawn) [Compound 185, N-(2-hydroxy-1-{3-[4-(trifluoromethyl)phenyl]-1,2,4-oxadiazol-5-yl}ethyl)-2-(1H-indol-3-yl)acetamide]
40 to 80 | O=C(NCCc1nc(-c2c[nH]c3ccccc23)no1)c1ccc(Cl)cc1 [Compound 71, N-[2-{3-(1H-indol-3-yl)-1,2,4-oxadiazol-5-yl}ethyl]-4-chloro-benzamide]
> 80 | O=C1CC(c2nc(-c3ccc4c(c3)OC(F)(F)O4)no2)CN1c1ccc(Cl)cc1 (stereo not drawn) [Compound 32, 1-(4-chlorophenyl)-4-{3-(2,2-difluoro-benzo[d][1,3]dioxol-5-yl)-1,2,4-oxadiazol-5-yl}pyrrolidin-2-one]
40 to 80 | O=C(N[C@@H](CO)c1nc(-c2ccc3c(C(=O)C(F)(F)F)c[nH]c3c2)no1)c1ccc(F)cc1 [Compound 256, 4-fluoro-N-[(1S)-2-hydroxy-1-{3-[3-(2,2,2-trifluoroacetyl)-1H-indol-6-yl]-1,2,4-oxadiazol-5-yl}ethyl] benzamide]
40 to 80 | O=C(NC(CO)c1nc(-c2ccc(OC(F)(F)F)cc2)no1)c1c[nH]c2ccccc12 (stereo not drawn) [Compound 46, N-(2-hydroxy-1-[3-{4-(trifluoro-methoxy)phenyl}-1,2,4-oxadiazol-5-yl]ethyl)-1H-indole-3-carboxamide]
> 80 | O=C(N[C@@H](CO)c1nc(-c2cc3ccccc3[nH]2)no1)c1ccc(F)cc1 [Compound 266, 4-fluoro-N-[(1S)-2-hydroxy-1-[3-(1H-indol-2-yl)-1,2,4-oxadiazol-5-yl]ethyl] benzamide]
40 to 80 | C[C@H](O)[C@H](NC(=O)c1ccc(Cl)cc1)c1nc(-c2ccc(OC(F)(F)F)cc2)no1 [Compound 127, 4-chloro-N-((1S,2S)-2-hydroxy-1-(3-(4-(trifluoromethoxy)phenyl)-1,2,4-oxa-diazol-5-yl)propyl) benzamide]
40 to 80 | CN(C)C(=O)C[C@H](NC(=O)c1ccc(Cl)cc1)c1nc(-c2ccc(OC(F)(F)F)cc2)no1 [Compound 87, (S)-4-chloro-N-(3-(dimethylamino)-3-oxo-1-[3-{4-(trifluoromethoxy)phenyl}-1,2,4-oxadiazol-5-yl]propyl) benzamide]
40 to 80 | O=C1CC(c2nc(-c3ccc(OC(F)(F)F)cc3)no2)CN1c1cccc(Cl)c1 (stereo not drawn) [Compound 27, 1-(3-chlorophenyl)-4-{3-[4-(trifluoromethoxy)phenyl]-1,2,4-oxadiazole-5-yl}pyrrolidin-2-one]
40 to 80 | O=C(c1ccc(Cl)cc1)N1CC(O)CC1c1nc(-c2ccc(OC(F)(F)F)cc2)no1 (stereo in doubt) [Compound 85, (4-chlorophenyl) ((2S,4S)-4-hydroxy-2-[3-{4-(trifluoromethoxy)phenyl}-1,2,4-oxadiazol-5-yl]pyrrolidin-1-yl)methanone]
< 40 | COc1cccc2c(CC(=O)NCCc3nc(-c4c[nH]c5ccccc45)no3)c[nH]c12 [Compound 70, N-[2-{3-(1H-indol-3-yl)-1,2,4-oxadiazol-5-yl}ethyl]-2-(7-methoxy-1H-indol-3-yl) acetamide]
40 to 80 | CC(=O)c1ccc(-c2noc([C@H](CO)NC(=O)c3ccccc3)n2)cc1 [Compound 153, N-[(1S)-1-[3-(4-acetylphenyl)-1,2,4-oxadiazol-5-yl]-2-hydroxyethyl] benzamide]
40 to 80 | O=C(N[C@@H](CO)c1nc(-c2c[nH]c3cc(Cl)ccc23)no1)c1ccc(F)cc1 [Compound 263, N-[(1S)-1-[3-(6-chloro-1H-indol-3-yl)-1,2,4-oxadiazol-5-yl]-2-hydroxyethyl]-4-fluorobenzamide]
40 to 80 | O=C(N[C@@H](CO)c1nc(-c2ccc(C3(F)COC3)cc2)no1)c1ccc(F)cc1 [Compound 190, 4-fluoro-N-[(1S)-1-{3-[4-(3-fluorooxetan-3-yl)phenyl]-1,2,4-oxadiazol-5-yl}-2-hydroxyethyl] benzamide]
